Measurements: patent US7019000B1, “Method of treating a disease condition caused or exacerbated by an HPV” (Institute of Molecular & Cell Biology, priority 1998, dated 2006)

Legend:
[1] = biological target: T1, HPV-16-E6 (recombinant GST-E6 protein) (Human papillomavirus type 16, UniProt P03126); test: biochemical; assay type: biochemical; conditions: read-out: TSQ % (% values of Zinc release)
T1 construct: The full length HPV16 E6 gene was amplified via polymerase chain reaction and cloned in the vector pGeX4T2; made in house; host or cells: E. coli strain AB1899
Excerpt: Where the chelated metal is zinc, zinc release can be measured as an increase in the fluorescence of the zinc-selective fluorophore TSQ (N-(6-methoxy-8-quinolyl)-p-toluenesulfonamide) (18) in the presence of the protein and the active compound (TSQ assay).
In such an assay, the increase in fluorescence measured can be described as a percentage of the increase in fluorescence observed for a positive control compound which provides 100% zinc release. A suitable positive control compound is H2O2. Preferred compounds which may be useful in the present invention are those which release at least 30% of the chelated zinc as measured by the TSQ assay. Particularly preferred compounds for use in the present invention are those which release at least 40% of the chelated zinc, more preferably at least 50%.
In earlier studies, reduced glutathione (GSH) was required to elute recombinant glutathione sulfhydryl transferase E6 (recombinant (GST-E6)) protein during the purification process. However, the reducing activity of the GSH sulfhydryl groups protected GST-E6 protein from the chemical attack by agents, such as the disulphide based organic compounds of Formula (I) and (II). […] Individual assays were done in the presence of 9 μg GST-E6 protein, corresponding to a concentration of 1 μM GST-E6 protein and 2 μM bound zinc, assuming the presence of two Zn ions per protein.
Release of zinc from HPV-16-E6 was monitored by the change in fluorescence of the zinc-selective fluorophore TSQ (N-6-methoxy-8-quinolyl)-p-toluenesulfonamide), (Molecular Probes, Eugene, Oreg.) by modification of published procedures (25, 26, 27). In a total reaction volume of 200 μl, 9 μg (1 μM) recombinant GST-E6 protein (corresponding to a concentration of 1 μM), bound to glutathione-sepharose beads, were incubated with 10 μM of each compound or 0.6% (170 mM) H2O2 in TSQ-assay buffer (10 mM sodium phosphate buffer pH7.0, 10% glycerol) for 2 hours at room temperature (200 μl total volume in 96-well plates). Immediately after addition of 100 μM TSQ, the increase in fluorescence was measured on a SLT Fluostar (355 nm excitation filter and 460 nm emission filter, Tecan, Salzburg).
Values given are % values of Zinc release. The relative fluorescence units (RFU) were normalized to the amount of zinc released by H2O2 (regarded as 100%). The concentration of compound used was 10 μM for C27–C35, 13 μM for C37–C83, H2O2 was used at 0.3% for C27–C35 and 0.2% for C37–C83.

[2] = biological target: T2, binding of E6 with E6AP and E6BP (Human papillomavirus type 16, UniProt P03126); set-up: species or system HPV-16; conditions: for BIACORE (E6BP/E6AP): 400 μM compound, 2 hrs at room temperature, GST-E6 7 μM in 10 mM GSH; for complex formation of GST-E6 with GST-E6AP/GST-E6BP, controls: 5 mM EDTA or 0.6% (170 mM) H2O2, 2 hrs at room temperature
T2 construct: The full length HPV16 E6 gene was amplified via polymerase chain reaction and cloned in the vector pGeX4T2; made in house; host or cells: E. coli strain AB1899
Excerpt: BIACORE allows real time analysis of bimolecular interactions without the need for isotopic or enzymatic labelling. BIACORE technology is based on the optical surface plasmon resonance (SPR), a technique that allows for detecting small changes in the refractive index on the surface of a thin gold film coated with a dextran matrix. Typically, one of the binding partners (termed the ligand) is covalently linked to the dextran matrix, while the other partner (termed the analyte) is introduced in a flow passing over the surface. The change in refractive index resulting from the interaction of the molecules is expressed in resonance units (RU): a SPR response of 1000 RU corresponds to a change of the surface concentration of the analyte of 1 ng protein/mm^2. GST-E6AP and GST-E6BP were used as ligands and GSTE6 was used as the analyte. […] Further controls included using the dextran matrix alone or GST as the ligand.
Binding of GST-E6 to GST-E6BP, GST-E6AP and GST was monitored by surface plasmon resonance (SPR) on a BIACORE 2000 machine (Biacore AB, Uppsala, Sweden). […] Typically 6000–10000 RU of GST, E6BP and E6AP were immobilized on three difference flowcells. Aliquots of purified HPV-16 GST-E6 (7 μM in 10 mM GSH, 50 mM Tris/PBS buffer, pH 8.2) were incubated with either 400 μM compound, or 5 mM EDTA, or 0.6% (170 mM) H2O2 for 2 hrs at room temperature. Then 10 μl of sample was injected at 1 μl/min over the three immobilized ligands using the sequential flow mode. The interactions between GST-E6 and ligands were monitored by the change of resonance signal in arbitrary units (RU).

[3] = system: HPV containing cell lines as HeLa, SiHa and Caski, compared to HPV-negative cell lines MCF7, HEPG2, (HaCat, HT3, 444); test: Cell viability (WST1 assay), panel of HPV-positive and HPV-negative cell lines; assay type: cell-based, human; conditions: for WST1: 50 μM in cell culture; for WST1-spec: 50 μM, HPV containing vs HPV-negative cell lines
Protocol: Zinc finger proteins are required for maintenance of cell viability. Preferably, the compounds for use in the present invention are specific in their ability to affect the viability of MPV containing cells, with little or no cytotoxic effects on the cellular functioning of healthy non-MPV containing cells. The viability of MPV-infected cells (and non infected cells) in the presence of compounds of Formulae (I) or (II) can be measured by incubating with the tetrazolium salt WST1 (Roche Molecular Biochemicals, Manneheim Germany) and measuring the absorption readings thereof (WST1 assay).
All cell lines were obtained from the American Type Culture Collection (Manassas, Va.) unless otherwise noted. SiHa (human cervical epithelial tumor line, HPV16-positive), CaSki (human cervical epithelial tumor line, HPV16-positive), HaCat (immortalized human skin epithelial cell line, HPV-negative), HeLa (human cervical epithelial tumor line, HPV18-positive), 444 (hybrid of HeLa and fibroblast, HPV18-positive) obtained from Eric Stanbridge (Universitv of California, Irvine), MCF7 (human mammary epithelial tumor cell line, HPV-negative), HT3 (human cervical epithelial tumor cell line, HPV-negative) was obtained from the German Cancer Research Institute/DKFZ-Heidelberg, and HepG2, (human liver epithelial tumor cell line, HPV-negative), were grown in Dulbecco's modified Eagle medium (DMEM) supplemented with 10% fetal calf serum, 100 U penicillin and 1000 U streptomycin. Cells were allowed to attach to the surface of microwell dishes overnight and subsequently, incubated with medium containing the zinc ejecting compounds at the concentrations (10–100 μM). Viability of the cells was scored by measuring the absorption of the tetrazolium salt WST1 (Roche Molecular Biochemicals, Mannheim, Germany) in an Elisa-plate reader (Tecan, Salzburg, Austria) at a wavelength of 450 nm and a reference wavelength of 630 nm.
A total of 10 000 cells per well were plated on 24 well plates, after attachment overnight, they were treated 3 times in 3 days with C16 at 10 μM and 50 μM. The activity of C16 was also compared with that of C4 (azodicarbonamide) which causes ejection of zinc from HIV-1 NCp7 and is currently used in clinical trials for the treatment of AIDS.

T1 sequence (P03126 whole entry): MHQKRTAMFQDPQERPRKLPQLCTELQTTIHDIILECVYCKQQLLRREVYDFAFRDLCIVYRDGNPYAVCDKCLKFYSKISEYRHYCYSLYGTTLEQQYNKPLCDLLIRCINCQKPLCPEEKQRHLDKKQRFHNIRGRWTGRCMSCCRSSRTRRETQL
T2 sequence (P03126 whole entry): as above

Row | SMILES | activation at 13 µM [1] [%] | BIACORE (E6BP/E6AP) [2] | WST1 [3] | WST1-spec [3] | activation at 10 µM [1] [%] | growth inhibition ([3]; any of these six cell lines (FIG. 3)) | complex formation of GST-E6 with GST-E6AP/GST-E6BP, controls [2]
1 | CCOC(=O)CN(Cc1ccccc1)SSN(CC(=O)OCC)Cc1ccccc1 [Compound C83] | 22 | + (compound interferes in binding of E6 with E6AP and E6BP, binding is less than 50% of the corresponding E6-DMSO value.) | + |  |  |  | 
2 | CC1CN(SSN2CC(C)OC(C)C2)CC(C)O1 (centres unmarked) [Compound C37] | 40.3 | + (compound interferes in binding of E6 with E6AP and E6BP, binding is less than 50% of the corresponding E6-DMSO value.) | + | + |  |  | 
3 | CC1CN1SSN1CC1C (centres unmarked) [Compound R25] |  | + (compound interferes in binding of E6 with E6AP and E6BP, binding is less than 50% of the corresponding E6-DMSO value.) |  |  | 30.9 |  | 
4 | c1ccc(N2CCN(SSN3CCN(c4ccccn4)CC3)CC2)nc1 [Compound C55] | 50.6 | + (compound interferes in binding of E6 with E6AP and E6BP, binding is less than 50% of the corresponding E6-DMSO value.) | + | + |  |  | 
5 | COc1ccc(N2CCN(SSN3CCN(c4ccc(OC)cc4)CC3)CC2)cc1 [Compound C71] | 0 |  | + | + |  |  | 
6 | NC(=O)N=NC(N)=O [Compound C4, azodicarbonamide, reference compound] |  |  |  |  |  | did not cause growth inhibition | 
7 | CN1CCN(SSN2CCN(C)CC2)CC1 [Compound C39] | 45 | + (compound interferes in binding of E6 with E6AP and E6BP, binding is less than 50% of the corresponding E6-DMSO value.) | + | + |  |  | 
8 | CN1CCCN(C(=S)SSC(=S)N2CCCN(C)CC2)CC1 [Compound C35] |  |  | + |  | 106 |  | 
9 | CCN(CC)SSN(CC)CC [Compound C49] | 57 | + (compound interferes in binding of E6 with E6AP and E6BP, binding is less than 50% of the corresponding E6-DMSO value.) | + |  |  |  | 
10 | C1CCN(SSN2CCCCC2)CC1 [Compound C48] | 54.3 | + (compound interferes in binding of E6 with E6AP and E6BP, binding is less than 50% of the corresponding E6-DMSO value.) | + | + |  |  | 
11 | S=C(SSC(=S)N1CCOCC1)N1CCOCC1 [Compound C32] |  | + (compound interferes in binding of E6 with E6AP and E6BP, binding is less than 50% of the corresponding E6-DMSO value.) |  |  | 80.9 |  | 
12 | O=C1c2ccccc2C(=O)N1SSN1C(=O)c2ccccc2C1=O [Compound C27] |  | + (compound interferes in binding of E6 with E6AP and E6BP, binding is less than 50% of the corresponding E6-DMSO value.) | + |  | 103 |  | 
13 | C1CCN(SSN2CCCC2)C1 [Compound C42] | 50.5 | + (compound interferes in binding of E6 with E6AP and E6BP, binding is less than 50% of the corresponding E6-DMSO value.) | + |  |  |  | 
14 | CC1(C)COCN1SSN1COCC1(C)C [Compound C82] | 28.4 | + (compound interferes in binding of E6 with E6AP and E6BP, binding is less than 50% of the corresponding E6-DMSO value.) | + |  |  |  | 
15 | C1CN1SSN1CC1 [Compound R24] |  | + (compound interferes in binding of E6 with E6AP and E6BP, binding is less than 50% of the corresponding E6-DMSO value.) | + |  | 71 |  | 
16 | CCOC(=O)N1CCN(SSN2CCN(C(=O)OCC)CC2)CC1 [Compound C41] | 36.8 | + (compound interferes in binding of E6 with E6AP and E6BP, binding is less than 50% of the corresponding E6-DMSO value.) | + | + |  |  | 
17 | O=[N+]([O-])c1ccc(N2CCN(SSN3CCN(c4ccc([N+](=O)[O-])cc4)CC3)CC2)cc1 [Compound C69] | 0 | + (compound interferes in binding of E6 with E6AP and E6BP, binding is less than 50% of the corresponding E6-DMSO value.) |  |  |  |  | 
18 | O=CN(SSN(C=O)C1CCCCC1)C1CCCCC1 [Compound R26] |  | + (compound interferes in binding of E6 with E6AP and E6BP, binding is less than 50% of the corresponding E6-DMSO value.) | + |  | 54.9 |  | 
19 | OO [Compound H2O2, H2O2, reference compound] |  |  |  |  |  |  | completely eliminated complex formation
20 | C1CN(SSN2CCSCC2)CCS1 [Compound C38] | 41.8 | + (compound interferes in binding of E6 with E6AP and E6BP, binding is less than 50% of the corresponding E6-DMSO value.) | + | + |  |  | 
21 | O=C(O)CN(CCN(CC(=O)O)CC(=O)O)CC(=O)O [EDTA, reference compound] |  |  |  |  |  |  | completely eliminated complex formation
